Experiments:
[1] = target: T1, human recombinant serotonin (5-Hydroxytryptamine) 5-HT6 receptor (Homo sapiens, UniProt P50406); assay: Serotonin 5-HT6 radioligand binding ([3H]LSD); set-up: Inhibition of ligand binding, Ser. 5-HT6: concentration or dose not given beside the values; details: percent inhibition of specific binding
T1 construct: expressed in transfected cells; host or cells: human HeLa cells
Text: Receptor proteins were filtered and washed, the filters were then counted to determine [3H]LSD specifically bound. […] Biochemical assay results are presented as the percent inhibition of specific binding in Table 6.

[2] = target: T2, human recombinant adrenergic α2A receptor (Homo sapiens, UniProt P08913); assay: Adrenergic α2A radioligand binding ([3H]MK-912); set-up: Inhibition of ligand binding, Adren. alpha2A: concentration or dose not given beside the values; details: percent inhibition of specific binding
T2 construct: expressed in transfected cells; host or cells: insect Sf9 cells
T2 sequence (P08913 1-465): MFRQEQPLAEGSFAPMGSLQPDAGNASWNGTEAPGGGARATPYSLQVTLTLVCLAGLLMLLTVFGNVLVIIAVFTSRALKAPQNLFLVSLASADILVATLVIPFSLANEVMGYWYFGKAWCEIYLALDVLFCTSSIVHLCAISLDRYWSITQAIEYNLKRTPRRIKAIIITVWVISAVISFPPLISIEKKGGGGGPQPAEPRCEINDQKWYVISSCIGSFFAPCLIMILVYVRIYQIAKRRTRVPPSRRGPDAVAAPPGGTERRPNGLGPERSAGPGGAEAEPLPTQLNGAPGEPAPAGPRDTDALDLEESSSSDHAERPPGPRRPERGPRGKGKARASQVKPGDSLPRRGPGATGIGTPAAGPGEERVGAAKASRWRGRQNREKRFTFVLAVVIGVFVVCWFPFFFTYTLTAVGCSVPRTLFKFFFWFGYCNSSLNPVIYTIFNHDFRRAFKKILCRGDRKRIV
In short: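 Membranes from Sf9 cells expressing the receptor were incubated with 1 nM [3H]MK-912 for 60 minutes at 25° C in 50 mM Tris-HCl pH 7.4, 12.5 mM MgCl2, 2 mM EDTA. 10 μM WB-4101 defined non-specific binding. Values are percent inhibition of specific bound radioactivity after filtration.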

[3] = target: T3, Serotonin (5-Hydroxytryptamine) 5-HT7 (Homo sapiens, UniProt P34969); assay: Serotonin 5-HT7 radioligand binding ([3H]LSD); set-up: Inhibition of ligand binding, Ser. 5-HT7: concentration or dose not given beside the values; details: percent inhibition of specific binding
T3 construct: expressed in transfected cells; host or cells: CHO cells
T3 sequence (P34969 whole entry): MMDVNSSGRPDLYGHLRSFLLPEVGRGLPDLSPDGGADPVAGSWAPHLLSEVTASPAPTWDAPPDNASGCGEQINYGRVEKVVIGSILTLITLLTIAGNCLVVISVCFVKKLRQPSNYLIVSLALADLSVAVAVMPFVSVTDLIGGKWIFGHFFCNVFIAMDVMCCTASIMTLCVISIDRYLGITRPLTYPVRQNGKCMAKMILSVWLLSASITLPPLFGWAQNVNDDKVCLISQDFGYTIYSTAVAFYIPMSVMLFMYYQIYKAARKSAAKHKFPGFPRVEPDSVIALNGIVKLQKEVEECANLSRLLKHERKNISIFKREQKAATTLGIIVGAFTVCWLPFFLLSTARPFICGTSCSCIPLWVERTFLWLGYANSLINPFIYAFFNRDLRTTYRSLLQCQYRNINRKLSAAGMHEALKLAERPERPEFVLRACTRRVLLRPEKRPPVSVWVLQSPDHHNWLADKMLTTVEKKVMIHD
Method: Lysergic acid diethylamide (LSD) for 2 hours at 25° C. […] Receptor proteins were filtered and washed, the filters were then counted to determine [^3H]LSD specifically bound. […] Biochemical assay results are presented as the percent inhibition of specific binding in Table 6.

[4] = tested on: adrenergic receptors α1D, α2A, α2B; serotonin receptor 5-HT6; dopamine receptor D2L; assay: Classification of compounds (Type 1-4) from receptor binding and neurite outgrowth
[5] = target: T4, human recombinant adrenergic α1D receptor (Homo sapiens, UniProt P25100); assay: Adrenergic α1D radioligand binding ([3H]Prozosin); set-up: Inhibition of ligand binding, Adren. alpha1D: concentration or dose not given beside the values; details: percent inhibition of specific binding
T4 construct: expressed in transfected cells; host or cells: HEK-293 cells
T4 sequence (P25100 1-572): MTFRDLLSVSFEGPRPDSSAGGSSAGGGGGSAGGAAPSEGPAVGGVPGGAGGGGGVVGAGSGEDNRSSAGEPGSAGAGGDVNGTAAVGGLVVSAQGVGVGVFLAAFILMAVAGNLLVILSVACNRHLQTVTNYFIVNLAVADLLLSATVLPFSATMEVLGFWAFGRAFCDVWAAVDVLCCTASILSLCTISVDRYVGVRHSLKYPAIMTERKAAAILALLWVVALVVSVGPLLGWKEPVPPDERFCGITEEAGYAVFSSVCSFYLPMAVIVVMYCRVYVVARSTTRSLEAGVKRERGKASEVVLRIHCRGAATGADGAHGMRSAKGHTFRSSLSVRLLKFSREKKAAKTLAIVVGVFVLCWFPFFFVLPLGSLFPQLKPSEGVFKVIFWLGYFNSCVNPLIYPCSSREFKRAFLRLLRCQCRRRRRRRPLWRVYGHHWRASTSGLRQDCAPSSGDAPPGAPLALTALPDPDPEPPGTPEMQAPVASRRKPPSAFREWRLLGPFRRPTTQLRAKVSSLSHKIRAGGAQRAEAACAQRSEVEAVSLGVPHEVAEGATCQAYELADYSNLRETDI
Method: Compounds of invention were incubated with 0.6 nM [^3H]Prozosin for 60 minutes at 25° C. Non-specific binding was estimated in the presence of 10 μM phentolamine. Receptor proteins were filtered and washed, the filters were then counted to determine [^3H]Prozosin specifically bound. […] Biochemical assay results are presented as the percent inhibition of specific binding in Table 6.

T1 sequence (P50406 whole entry): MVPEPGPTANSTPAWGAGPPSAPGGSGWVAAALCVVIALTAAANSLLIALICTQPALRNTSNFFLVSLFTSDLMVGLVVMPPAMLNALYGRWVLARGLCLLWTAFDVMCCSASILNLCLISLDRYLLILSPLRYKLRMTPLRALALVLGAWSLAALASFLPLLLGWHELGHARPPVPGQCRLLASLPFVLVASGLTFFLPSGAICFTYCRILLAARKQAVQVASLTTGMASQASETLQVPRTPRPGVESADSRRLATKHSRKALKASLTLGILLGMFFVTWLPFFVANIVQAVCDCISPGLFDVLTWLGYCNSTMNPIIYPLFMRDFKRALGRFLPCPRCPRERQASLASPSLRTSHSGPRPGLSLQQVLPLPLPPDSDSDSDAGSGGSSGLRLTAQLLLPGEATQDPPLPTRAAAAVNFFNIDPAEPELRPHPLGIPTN

Structure (SMILES) | Inhibition of ligand binding, Ser. 5-HT6 [1] | Inhibition of ligand binding, Adren. alpha2A [2] | Inhibition of ligand binding, Ser. 5-HT7 [3] | compound type (classification by receptor binding profile and neurite outgrowth) [4] | Inhibition of ligand binding, Adren. alpha1D [5]
CC(C)c1ccc(CCn2c3c(c4cc(Cl)ccc42)CN(C)CC3)cn1 [Compound 372, 8-Chloro-5-[2-(6-isopropyl-pyridin-3-yl)-ethyl]-2-methyl-2,3,4,5-tetrahydro-1H-pyrido[4,3-b]indole] | 88% | 100% | 94% | Type one | 94%
CCCc1ccc(CCn2c3c(c4cc(C)ccc42)CN(C)CC3)cn1 [Compound 452, 2,8-Dimethyl-5-[2-(6-propyl-pyridin-3-yl)-ethyl]-2,3,4,5-tetrahydro-1H-pyrido[4,3-b]indole] | 93% | 92% | 96% | Type one | 82%
